These are literature values, as cited in US20260204362A1, “METHOD FOR DETERMINING A TARGET […] COMPOUND COMPRISING A TARGET BIODEGRADABILITY” (BASF SE, priority 2022, published 2026).

The conditions of this data set: known values for test molecules from the NITE database; OECD 301 (A-F) test setups, measurement uncertainty ca. 10%.
On to `CCC(CC)C(=O)OCCOCCOCCOC(=O)C(CC)CC` [CCC(CC)C(═O)OCCOCCOCCOC(═O)C(CC)CC], for which the “Biodegradability (data) in %” value is reported as 81%. As for `OCC=CCO` [OCC═CCO], the “Biodegradability (data) in %” value was 57%. In the case of `BrCCCCBr` [BrCCCCBr], the “Biodegradability (data) in %” value is on record as 17%.

On to `CNCCS(=O)(=O)O` [CNCCS(═O)(═O)O], for which the “Biodegradability (data) in %” value is reported as 62%. As to `CCCCN(CCCC)C(=S)[S][Ni][S]C(=S)N(CCCC)CCCC` [CCCCN(CCCC)C(═S)S[Ni]SC(═S)N(CCCC)CCCC], the “Biodegradability (data) in %” value is on record as 3%.
